Data on five compounds can be found in US20230405003A1, “APPLICATION OF THYMIDINE DERIVATIVE IN PREPARATION OF DRUGS” (ONQUALITY PHARMACEUTICALS CHINA LTD., priority 2020, published 2023).

The subject of data set [1] is HaCaT cells. Briefly: Relief of 5-FU proliferative toxicity to HaCaT cells (CCK-8 cell survival). The class given is cell-based. Conditions: for activation at 1000 µM: compound 1000 μM; for Cell Survival Rate (increased percentage of cell survival compared with the Group of 5-FU): 5-Fu 20 μM, HaCaT cells. The method, then: The cultured skin cell HaCaTs were digested, counted, and inoculated into a 96-well plate with 5000-10000 cells in each well. After 24 h of culture, the wells were divided into Group of blank solvent control, Group of 5-FU, Group of 5-FU+thymidine derivative, Group of 5-FU+the combination of thymidine derivative and uridine derivative. […] adding a solution of 5-FU and a solution of thymidine derivative (the final concentrations of 5-FU and thymidine derivative are shown in Table 3, the solution of thymidine is an aqueous solution, while the solutions of thymidine derivatives are all DMSO solutions); Group of 5-FU+the combination of thymidine derivative and uridine derivative: adding a solution of 5-FU and a mixed solution of thymidine derivative and uridine derivative (the final concentrations of the solution of 5-FU and the mixed solution of thymidine derivative+uridine derivative are shown in Table 3, the solution of thymidine is an aqueous solution, while the mixed solutions of thymidine derivative+uridine derivative are all DMSO solutions); Group of blank solvent control: adding the same type of solution as those of the corresponding Group of 5-FU or Group of 5-FU+thymidine derivative (or the mixed solution of thymidine derivative+uridine derivative) in equal volume. Group of blank solvent control was used as control to exclude the influence of the solvents in Group of 5-FU and Group of 5-FU+thymidine derivative (or the mixed solution of thymidine derivative+uridine derivative) on the results. After additional 48 hours of culture, a Cell Counting Kit-8 (CCK-8) detection kit (C0037, purchased from Shanghai Beyotime Biotechnology) is used to determine the cell survival rate, thereby calculating the proliferative toxicity of 5-Fu/5-DFUR on cells and the relieving effect of the thymidine derivative (or the mixed solution of thymidine derivative+uridine derivative) on the proliferative toxicity. Using GraphPad Prism 6.0 software, the results were statistically analyzed by t-test and plotted.
Table 3 lists the combinations of 5-FU and thymidine derivative (or the mixed solution of thymidine derivative+uridine derivative), and the corresponding experimental results (wherein the data in the column of cell survival indicate the corresponding increased percentage of the cell survivals of Group of 5-FU+thymidine derivative or Group of 5-FU+the combination of thymidine derivative and uridine derivative compared with the Group of 5-FU). FIGS. 3-10 list the experimental results of several representative compounds.
The effect of thymidine derivative or a combination of thymidine derivative and uridine derivative on relieving the proliferative toxicity of a chemotherapeutical drug (5-FU) to HaCaT cells was tested according to the method in Examples 2-29. The test thymidine derivative or the combination of thymidine derivative and uridine derivative, as well as the final concentration of the test compounds were shown in Table 7.
Table 7 lists the combinations of 5-FU and thymidine derivative (or the mixed solution of thymidine derivative+uridine derivative), and the corresponding experimental results (wherein the data in the column of cell survival indicate the corresponding increased percentage of the cell survivals of Group of 5-FU+thymidine derivative or Group of 5-FU+the combination of thymidine derivative and uridine derivative compared with the Group of 5-FU). FIGS. 15-21 list the experimental results of several exemplary compounds.

Data set [2] relates to hand-foot syndrome caused by capecitabine in SD rats. The data set can be described thus: Rat model of hand-foot syndrome caused by capecitabine, gel application. The class given is in vivo. Conditions: capecitabine 4000 mg/kg once daily, 40 days; for Control Rate Forepaws / Control Rate Hindpaws: rats. The protocol:
A rat animal model was established. 6-week aged female SD rats were administered with capecitabine by daily gavage. The degree of hand-foot syndrome in paws is similar, and there was no difference between the left and right paws. Similar to the human body, rats developed hand-foot syndrome after oral administration of capecitabine. The causes of the two are the same, and the disorder is also very similar. Therefore, rats are very good animal models for simulating the hand-foot syndrome caused by capecitabine.
After SD rats were fed and adapted for one week (about 200 g), the rats were divided into groups, with 10 rats in each group. Then, the rats were subject to gavage administration. Capecitabine was dissolved in a 1:1 mixed solution of castor oil and ethanol and diluted for three times with PBS buffer. After gavage, the rats were fixed with a fixed cylinder, and a gel of thymidine derivative (or a compounded gel of thymidine derivative and uridine derivative) was applied to double hind paws (about 1 cm*3 cm) of the rats in group of administration (the types and concentrations are shown in Table 4), and a blank gel was applied to the group of blank (as a blank control). After approximately 4 hours of application, the rats were released after 4 hours, wiped with clean water to remove any residual drug at the application site, and allowed back to the cage. The thymidine derivative gel (or the compounded gel of thymidine derivative and uridine derivative) was administered with gavage every day. The gavage and application tests are repeated daily until the group of blank has developed obvious hand-foot syndrome.
Table 4 lists the combinations of animal experiments of capecitabine and the thymidine derivative gel (or the compounded gel of thymidine derivative and uridine derivative) and the corresponding experimental results (wherein, the data in the column of control rate=the occurrence rate of hand-foot syndrome in group of blank—the occurrence rate of hand-foot syndrome in group of administration). […]

Where [3] appears, read: Homo sapiens, HaCaT, increase vs Group of 5-FU, 5-FU 20 μM, 48 h, read-out: Cell Survival Rate.
[4] abbreviates: selected compound final concentration 3.13 μM.
Setting [5] is: selected compound final concentration 6.25 μM.
Where [6] appears, read: selected compound final concentration 12.5 μM.
[7] abbreviates: selected compound final concentration 25 μM.
[8] abbreviates: selected compound final concentration 50 μM.
Setting [9] is: selected compound final concentration 100 μM.

Regarding `CCC(=O)OC[C@H]1O[C@@H](n2cc(C)c(=O)[nH]c2=O)C[C@@H]1OC(=O)CC` [T5], the activation at 1 µM in data set [1] (Homo sapiens, HaCaT, increase vs Group of 5-FU, 5-FU 20 μM, compound 1 μM, 48 h, read-out: Cell Survival Rate) lay within 18 to 24%. Besides, the activation at 10 µM in data set [1] (Homo sapiens, HaCaT, increase vs Group of 5-FU, 5-FU 20 μM, compound 10 μM, 48 h, read-out: Cell Survival Rate) is 55 to 65%. The activation at 100 µM in data set [1] (Homo sapiens, HaCaT, increase vs Group of 5-FU, 5-FU 20 μM, compound 100 μM, 48 h, read-out: Cell Survival Rate) lay in the range of 77 to 84%. In data set [1] (Homo sapiens, HaCaT, increase vs Group of 5-FU, 5-FU 20 μM, compound 500 μM, 48 h, read-out: Cell Survival Rate), the activation at 500 µM is 78 to 85%. Further, in data set [1] (setting [3]), the activation at 1000 µM was 35 to 45%. The “Control Rate” value in data set [2] (SD rats, gel 2 wt% on hind paws) is 30.00%.

In the case of `Cc1ccc(Nc2c(F)cccc2Cl)c(CC(=O)OC[C@H]2O[C@@H](n3cc(C)c(=O)[nH]c3=O)C[C@@H]2O)c1` [T35], the “Cell Survival Rate (increased percentage of cell survival compared with the Group of 5-FU)” value in data set [1] (selected compound final concentration 0.8 μM) is recorded as 23%-31%; in data set [1] (selected compound final concentration 1.6 μM), 25%-33%; in data set [1] (setting [4]), 42%-48%; in data set [1] (setting [5]), 64%-70%; in data set [1] (setting [6]), 95%-101%; in data set [1] (setting [7]) it was 84%-91%. Further, the “Cell Survival Rate (increased percentage of cell survival compared with the Group of 5-FU)” value in data set [1] (setting [8]) is given as 85%-92%; in data set [1] (setting [9]) it was 39%-47%. The “Control Rate Forepaws” value in data set [2] (gel 1 wt%) is 25%; in data set [2] (gel 5 wt%), 75.00%. In addition, the “Control Rate Hindpaws” value turned out to be 37.50% in data set [2] (gel 1 wt%) and 88% in data set [2] (gel 5 wt%).

`Cc1cn([C@H]2C[C@H](OC(=O)C(C)c3cccc(Oc4ccccc4)c3)[C@@H](COC(=O)C(C)c3cccc(Oc4ccccc4)c3)O2)c(=O)[nH]c1=O` (stereo partly shown) [T46]: the “Cell Survival Rate (increased percentage of cell survival compared with the Group of 5-FU)” value in data set [1] (setting [4]) is recorded as 27%-34%; in data set [1] (setting [5]) it was 34%-41%; in data set [1] (setting [6]) it was 48%-55%; in data set [1] (setting [7]), 61%-68%; in data set [1] (setting [8]) it was 65%-72%; in data set [1] (setting [9]), 75%-83%. The “Cell Survival Rate (increased percentage of cell survival compared with the Group of 5-FU)” value in data set [1] (selected compound final concentration 200 μM) is listed as 54%-62%.

`Cc1cn([C@H]2C[C@H](OC(=O)[C@@H](C)c3ccc(CC(C)C)cc3)[C@@H](COC(=O)[C@@H](C)c3ccc(CC(C)C)cc3)O2)c(=O)[nH]c1=O` [T47]: the “Cell Survival Rate (increased percentage of cell survival compared with the Group of 5-FU)” value in data set [1] (selected compound final concentration 8 μM) is 21%-28%; in data set [1] (selected compound final concentration 16 μM) it was 35%-42%; in data set [1] (selected compound final concentration 32 μM) it was 49%-56%; in data set [1] (selected compound final concentration 62.5 μM), 63%-71%; in data set [1] (selected compound final concentration 125 μM), 64%-72%; in data set [1] (selected compound final concentration 250 μM), 44%-51%. In addition, in data set [1] (selected compound final concentration 500 μM), the “Cell Survival Rate (increased percentage of cell survival compared with the Group of 5-FU)” value was 24%-31%.

Turning to `Cc1cn([C@H]2C[C@H](O)[C@@H](CO)O2)c(=O)[nH]c1=O` [thymidine], the activation at 200 µM in data set [1] (Homo sapiens, HaCaT, increase vs Group of 5-FU, 5-FU 20 μM, compound 200 μM, 48 h, read-out: Cell Survival Rate) was in the range of 3 to 8%. Also, the activation at 1000 µM in data set [1] (setting [3]) was in the range of 15 to 23%. Moreover, the activation at 1500 µM in data set [1] (Homo sapiens, HaCaT, increase vs Group of 5-FU, 5-FU 20 μM, compound 1500 μM, 48 h, read-out: Cell Survival Rate) lay within 11 to 17%. Further, the activation at 2000 µM in data set [1] (Homo sapiens, HaCaT, increase vs Group of 5-FU, 5-FU 20 μM, compound 2000 μM, 48 h, read-out: Cell Survival Rate) lay in the range of 1 to 6%. Further, the activation at 3000 µM in data set [1] (Homo sapiens, HaCaT, increase vs Group of 5-FU, 5-FU 20 μM, compound 3000 μM, 48 h, read-out: Cell Survival Rate) is -25 to 20%.
